In ChEMBL document CHEMBL2396520, “The development of CNS-active LRRK2 inhibitors using property-directed optimisation” (Bioorg Med Chem Lett, 2013):

Tests used:
[1] = target: T1, Leucine-rich repeat serine/threonine-protein kinase 2 (Homo sapiens, UniProt Q5S007, G2019S); experiment: Inhibition of GST-tagged LRRK2 (1326 to 2527 amino acids) G2019S mutant (unknown origin)
Brain = experiment: Drug uptake in mouse brain at 1 mg/kg, iv; assay type: ADME, organism-based; set-up: dose 1 mg/kg, route intravenous; details: in vivo
[2] = target: T1, Leucine-rich repeat serine/threonine-protein kinase 2; experiment: Inhibition of human recombinant LRRK2 G2019S mutant using biotin-LRRKtide as substrate preincubated for 15 mins prior to substrate addition measured after 60 mins by TR-FRET assay
[3] = target: Leucine-rich repeat serine/threonine-protein kinase 2 (Homo sapiens, UniProt Q5S007); experiment: Inhibition of human recombinant wild type LRRK2 using biotin-LRRKtide as substrate preincubated for 15 mins prior to substrate addition measured after 60 mins by TR-FRET assay
Chain of Leucine-rich repeat serine/threonine-protein kinase 2 (Homo sapiens, UniProt Q5S007) (Q5S007 whole entry): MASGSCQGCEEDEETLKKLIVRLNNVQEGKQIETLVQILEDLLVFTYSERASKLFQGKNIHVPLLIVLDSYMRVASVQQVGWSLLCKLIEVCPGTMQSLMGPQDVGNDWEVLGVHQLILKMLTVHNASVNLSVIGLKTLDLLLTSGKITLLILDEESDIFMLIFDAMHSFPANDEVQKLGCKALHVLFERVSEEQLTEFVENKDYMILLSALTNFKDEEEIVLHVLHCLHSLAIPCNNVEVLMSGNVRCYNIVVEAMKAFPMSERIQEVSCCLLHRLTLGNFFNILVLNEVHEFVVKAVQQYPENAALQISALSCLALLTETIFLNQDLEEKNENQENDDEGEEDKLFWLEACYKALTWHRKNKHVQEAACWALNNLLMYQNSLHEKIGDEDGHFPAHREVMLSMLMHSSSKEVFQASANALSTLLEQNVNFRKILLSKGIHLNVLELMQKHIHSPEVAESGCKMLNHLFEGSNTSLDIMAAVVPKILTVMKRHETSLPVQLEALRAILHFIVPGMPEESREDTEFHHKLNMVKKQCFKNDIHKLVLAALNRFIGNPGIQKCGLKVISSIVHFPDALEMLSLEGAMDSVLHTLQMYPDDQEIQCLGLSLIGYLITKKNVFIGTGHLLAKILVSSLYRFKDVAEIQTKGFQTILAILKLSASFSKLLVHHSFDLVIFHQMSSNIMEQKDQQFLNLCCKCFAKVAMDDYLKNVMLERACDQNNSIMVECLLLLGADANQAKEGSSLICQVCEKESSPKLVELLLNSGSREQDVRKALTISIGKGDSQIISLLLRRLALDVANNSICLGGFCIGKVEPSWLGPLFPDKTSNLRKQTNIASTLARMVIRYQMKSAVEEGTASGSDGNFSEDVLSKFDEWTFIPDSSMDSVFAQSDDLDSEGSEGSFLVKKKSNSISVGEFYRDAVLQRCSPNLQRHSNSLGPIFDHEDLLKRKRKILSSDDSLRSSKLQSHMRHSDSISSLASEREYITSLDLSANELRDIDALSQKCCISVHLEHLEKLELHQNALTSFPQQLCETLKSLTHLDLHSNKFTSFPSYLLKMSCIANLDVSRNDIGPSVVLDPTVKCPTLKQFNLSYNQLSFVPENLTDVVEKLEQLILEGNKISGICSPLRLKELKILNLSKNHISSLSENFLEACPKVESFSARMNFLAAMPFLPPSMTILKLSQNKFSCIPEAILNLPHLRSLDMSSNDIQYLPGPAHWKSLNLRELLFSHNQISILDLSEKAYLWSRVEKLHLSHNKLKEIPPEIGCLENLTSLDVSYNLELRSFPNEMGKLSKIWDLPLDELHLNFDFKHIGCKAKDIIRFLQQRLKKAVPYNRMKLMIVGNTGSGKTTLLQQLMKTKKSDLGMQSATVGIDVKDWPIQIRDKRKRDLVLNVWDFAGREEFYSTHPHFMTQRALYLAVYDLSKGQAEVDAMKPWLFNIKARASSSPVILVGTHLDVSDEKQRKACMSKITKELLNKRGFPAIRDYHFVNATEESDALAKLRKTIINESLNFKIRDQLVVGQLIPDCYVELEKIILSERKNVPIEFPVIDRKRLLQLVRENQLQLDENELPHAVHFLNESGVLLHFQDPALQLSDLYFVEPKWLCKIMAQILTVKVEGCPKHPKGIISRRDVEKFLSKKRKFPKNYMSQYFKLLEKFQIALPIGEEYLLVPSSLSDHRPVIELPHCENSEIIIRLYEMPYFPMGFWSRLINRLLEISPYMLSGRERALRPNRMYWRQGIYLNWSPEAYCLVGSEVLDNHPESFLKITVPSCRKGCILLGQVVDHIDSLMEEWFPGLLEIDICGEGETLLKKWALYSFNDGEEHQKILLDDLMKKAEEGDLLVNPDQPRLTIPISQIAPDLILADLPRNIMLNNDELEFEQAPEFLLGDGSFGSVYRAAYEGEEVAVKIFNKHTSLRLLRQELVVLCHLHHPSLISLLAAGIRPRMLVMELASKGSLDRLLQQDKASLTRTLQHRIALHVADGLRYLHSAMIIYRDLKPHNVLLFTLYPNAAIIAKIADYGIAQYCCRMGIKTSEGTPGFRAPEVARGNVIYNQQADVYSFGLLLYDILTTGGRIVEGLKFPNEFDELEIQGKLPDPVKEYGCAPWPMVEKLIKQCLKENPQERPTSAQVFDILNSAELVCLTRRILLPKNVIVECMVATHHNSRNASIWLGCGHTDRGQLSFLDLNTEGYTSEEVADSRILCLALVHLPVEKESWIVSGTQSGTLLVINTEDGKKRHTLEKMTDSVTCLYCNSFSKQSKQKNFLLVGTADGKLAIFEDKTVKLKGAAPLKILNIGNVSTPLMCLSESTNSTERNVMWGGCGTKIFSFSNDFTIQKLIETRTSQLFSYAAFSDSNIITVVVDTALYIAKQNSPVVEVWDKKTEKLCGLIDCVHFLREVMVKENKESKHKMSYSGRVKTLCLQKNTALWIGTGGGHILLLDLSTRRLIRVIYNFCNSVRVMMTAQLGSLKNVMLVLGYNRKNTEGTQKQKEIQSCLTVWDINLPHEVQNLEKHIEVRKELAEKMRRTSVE

T1 sequence (Q5S007 whole entry G2019S, the tested form may be a part): as the sequence (Q5S007 whole entry) above, with G2019S counted along it

Drug uptake (Brain) [%]	IC50 [2] [nM]	Ki [2] [nM]	IC50 [3] [nM]	Compound	Ki [1] [nM]
				COc1cc(C(=O)N2CCC(N3CCN(C)CC3)CC2)ccc1Nc1ncc2c(n1)N(C)c1ccccc1C(=O)N2C	6
4	7	7	4	COc1cc(N2CCOCC2)ccc1Nc1ncc(F)c(Nc2ccccc2NS(C)(=O)=O)n1	
